Reference: patent US20150005387A1, “COMPOSITION CONTAINING AGMATINE, AND USES THEREOF IN PREPARING DRUGS OR NEUTRACEUTICAL SUBSTANCES” (priority 2012, published 2015)

How the values were obtained:
[1] = test system: Lewis lung carcinoma (3LL); test: Pulmonary metastatic invasion; format: in vivo, male C57BL/6 mice; conditions: for additional benefit in terms of metastatic process: added to the diet depleted of cadaverine, putrescine, spermidine and spermine
Description: Cells from Lewis lung carcinoma (3LL) were obtained from the ECACC (European Collection of Cell Cultures) and grafted by intramuscular injection in the hind paws of male C57BL/6 mice by the method described previously (Hergueux J. et al., Exp. […] The grafted mice are distributed randomly in the cages in groups of 5 individuals. […] The metastatic dissemination is expressed as percentage invasion relative to the total surface area of the lungs. The percentage metastatic invasion was measured in the mice of the ten groups described above, each having received different nutrition.

[2] = test system: putrescine, spermidine and spermine; test: Tumour levels of polyamines; format: in vivo, male C57BL/6 mice; conditions: for decrease of the tumour level of putrescine / decrease of the tumour level of spermidine / decrease of the tumour level of spermine: relative to diet containing a normal level of polyamines
Description: The level of polyamines is measured in the tumour formed at the site of inoculation of the Lewis carcinoma cells. […] After incubation for at least 16 h at 4° C., the cells are centrifuged for 15 minutes at 3500 rpm at 4° C. The supernatant that contains the polyamines is removed and is used for determination of the polyamines. The polyamines are determined by the method described previously (Seiler N et al., 1996, Cancer Research, 56, 5624-5630). The three principal polyamines present in mammals (putrescine, spermidine and spermine) were determined for the ten groups of mice that had each received different nutrition. The results are illustrated in FIG. 3.

Weight of the spleen = format: in vivo, male C57BL/6 mice
From the text: The animals are euthanized, then the spleen is removed from the mice and weighed using a precision balance. In addition to the ten groups of mice that each received a different diet, as described above, an eleventh group of animals was included for this study. These were male C57BL/6 mice having the same basic physiological characteristics as the mice in the other ten groups but that had not received grafts of Lewis carcinoma cells.

[3] = test system: Lewis lung carcinoma (3LL); test: Tumour growth (tumour volume), Example 1; format: in vivo, male C57BL/6 mice
Description: Male C57BL/6 mice, aged 9 weeks and weighing 20 g (Janvier breeding station, Le Genest St Isle, France), are acclimatized for 1 week before the start of the study. Handling of the animals is carried out in accordance with the ethical directives for experiments and according to the recommendations of the European Biomedical Research Association. Cells from Lewis lung carcinoma (3LL) were obtained from the ECACC (European Collection of Cell Cultures) and grafted by intramuscular injection in the hind paws of male C57BL/6 mice by the method described previously (Hergueux J. et al., Exp. […] The grafted mice are distributed randomly in the cages in groups of 5 individuals. The tumour becomes palpable some days after grafting took place. […] Cancer, 1984, 34(2), 277-281).

[4] = 2.67 g/day for 14 days, patients with a herniated disc; cited from earlier work
noradrenaline release = conditions: intravenous injection, 1 to 100 mg/kg; cited from earlier work
ODC = target: T1, ODC (Homo sapiens, UniProt P11926); conditions: renal cells; cited from earlier work
T1 sequence (P11926 1-461): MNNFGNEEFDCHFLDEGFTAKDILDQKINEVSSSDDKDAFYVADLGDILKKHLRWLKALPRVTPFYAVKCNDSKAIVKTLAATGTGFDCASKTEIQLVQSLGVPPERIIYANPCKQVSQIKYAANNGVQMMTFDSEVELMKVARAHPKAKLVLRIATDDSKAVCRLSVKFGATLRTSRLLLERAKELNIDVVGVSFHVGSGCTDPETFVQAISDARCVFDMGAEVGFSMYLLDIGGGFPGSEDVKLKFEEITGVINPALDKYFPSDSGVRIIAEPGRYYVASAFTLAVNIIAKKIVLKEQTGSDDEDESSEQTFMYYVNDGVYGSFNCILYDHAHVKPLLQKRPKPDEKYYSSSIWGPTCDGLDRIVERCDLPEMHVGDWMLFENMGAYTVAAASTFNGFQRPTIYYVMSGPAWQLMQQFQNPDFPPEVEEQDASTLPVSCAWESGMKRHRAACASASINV

[5] = animals injected with 0.3 nmol; cited from earlier work
[6] = intrathecal injection, diabetic rats; cited from earlier work
[7] = test system: cell lines from hepatocarcinomas; conditions: in vitro, 10 μm to 1 mM; cited from earlier work
[8] = test system: Lewis lung carcinoma (3LL); test: Tumour growth (tumour volume) in combination with an anticancer drug, Example 2; format: in vivo, male C57BL/6 mice
Description: Male C57BL/6 mice, aged 9 weeks and weighing 20 g (Janvier breeding station, Le Genest St Isle, France), are acclimatized for 1 week before the start of the study. Handling of the animals is carried out in accordance with the ethical directives for experiments and according to the recommendations of the European Biomedical Research Association.
After 20 days, the tumour cells are collected and dispersed in PBS, counted and diluted to reach 0.5×10^6 cells/100 μL, before being grafted in the right hind paw of the mice. The grafted mice are distributed randomly in the cages in groups of 5 individuals.
The tumour becomes palpable some days after the grafting took place. The animals are sacrificed 19 days after grafting the tumour cells.
The treatment is set up 6 days after grafting, when the tumour is palpable, and is administered 7 days a week and comprises the intake ad libitum of the normal nutrition or of the test solutes as well as drinking water.
The animal model (C57BL/6 mouse) and the tumour model (Lewis carcinoma) are described above. The mice are grafted with 0.5×10^6 tumour cells, by intramuscular injection in one of the hind paws.

[9] = tumour, neomycin based on a diet depleted of cadaverine, putrescine, spermidine and spermine
[10] = depleted diet + agmatine 18.4 mg/kg of food
[11] = depleted diet + agmatine 184 mg/kg of food
[12] = depleted diet + agmatine 1840 mg/kg of food
[13] = cyclophosphamide (CY) 9 mg·kg^−1·week^−1
[14] = cyclophosphamide (CY) 90 mg·kg^−1·week^−1

**Q.** For neomycin, which “mean value of pulmonary metastatic invasion” value ([1]; 19 days after grafting, no agmatine, neomycin where given 2 mg/ml in drinking water) is on record?
**A.** 11%

**Q.** What about the “additional benefit in terms of metastatic process” value [1] of the same molecule?
**A.** does not lead to any additional benefit

**Q.** And the “decrease in metastatic invasion” value ([1]; relative to mice on a diet containing a normal level of polyamines without antibiotic)?
**A.** 60%

**Q.** What about the “decrease in the level of putrescine” value ([2]; tumour, based on a normal diet) of the same molecule?
**A.** 17%

**Q.** And the “effect on the level of spermidine” value ([2]; tumour, based on a normal diet)?
**A.** no effect

**Q.** What about the “increase in the level of spermine” value ([2]; tumour, based on a normal diet) of the same molecule?
**A.** 7%

**Q.** What about the “decrease in the level of spermine” value [2, 9] of the same molecule?
**A.** 5%

**Q.** And the “increase in the level of putrescine” value [2, 9]?
**A.** 17%

**Q.** And the “increase in the level of spermidine” value [2, 9]?
**A.** 24%

**Q.** What about the “mean value of the weight of the spleen” value (Weight of the spleen; grafted mice, 19 days after grafting, no agmatine, neomycin where given 2 mg/ml in drinking water) of the same molecule?
**A.** 151 mg

**Q.** And the “effect of neomycin on the weight of the spleen” value (Weight of the spleen; groups 2, 4 and 6 (normal diet; depleted diet; depleted diet + agmatine 18.4 mg/kg of food))?
**A.** decrease in the weight of the spleen

**Q.** And the “effect of neomycin on the weight of the spleen” value (Weight of the spleen; groups 8 and 10 (depleted diet + agmatine 184 and 1840 mg/kg of food))?
**A.** increase in the weight of the spleen

**Q.** What about the “evolution of tumour volume” value ([3]; neomycin 2 mg/ml in drinking water, diet containing a normal level of polyamines) of the same molecule?
**A.** no effect

**Q.** Which perception of pain [4] does the source give for `N=C(N)NCCCCN.O=S(=O)(O)O` [agmatine sulphate] here?
**A.** attenuated perception of pain

**Q.** For `N=C(N)NCCCCN` [agmatine], which blood pressure (noradrenaline release) is on record?
**A.** decrease in blood pressure

**Q.** And the “inhibition of ODC / synthesis of polyamines” value (ODC)?
**A.** dose-dependent inhibition of ODC

**Q.** And the “perception of pain (allodynia)” value [5]?
**A.** anti-allodynic effect

**Q.** What about the “additional benefit in terms of metastatic process” value [1] of the same molecule?
**A.** does not appear to bring any additional benefit

**Q.** And the “decrease of the tumour level of putrescine” value [2, 10]?
**A.** 35%

**Q.** And the “decrease of the tumour level of spermidine” value (from here on “decrease … of spermidine”) [2, 10]?
**A.** 10%

**Q.** And the “decrease of the tumour level of spermine” value [2, 10]?
**A.** 31%

**Q.** What about the “decrease of the tumour level of putrescine” value [2, 11] of the same molecule?
**A.** 14%

**Q.** What about the “decrease … of spermidine” value [2, 11] of the same molecule?
**A.** 12%

**Q.** What about the “decrease of the tumour level of spermine” value [2, 11] of the same molecule?
**A.** 24%

**Q.** And the “decrease of the tumour level of putrescine” value [2, 12]?
**A.** 50%

**Q.** What about the “decrease … of spermidine” value [2, 12] of the same molecule?
**A.** 10%

**Q.** And the “decrease of the tumour level of spermine” value [2, 12]?
**A.** 16%

**Q.** And the “additional effect on the weight of the spleen” value (Weight of the spleen; agmatine added to the depleted diet, regardless of the dose)?
**A.** no additional effect

**Q.** What about the “tactile or thermal allodynia and hyperalgesia” value [6] of the same molecule?
**A.** suppresses tactile or thermal allodynia as well as hyperalgesia

**Q.** What about the cell cycle [7] of the same molecule?
**A.** stopping of the cancer cells in phase G2/M of the cell cycle

**Q.** And the “increase of the antitumour effect of the diet depleted of cadaverine, putrescine, spermidine and spermine” value (“increase … spermidine and spermine” for short) ([3]; agmatine 18.4 mg/kg of food)?
**A.** 8%

**Q.** And the “increase … spermidine and spermine” value ([3]; agmatine 184 mg/kg of food)?
**A.** 3%

**Q.** What about the “increase … spermidine and spermine” value ([3]; agmatine 1840 mg/kg of food) of the same molecule?
**A.** 13%

**Q.** Which results are given for `O=P1(N(CCCl)CCCl)NCCCO1` (stereo not drawn) [cyclophosphamide]?
**A.** Monitoring of tumour volume (in cm^3) D0 [8, 13]: 0 cm^3; Monitoring of tumour volume (in cm^3) D0 [8, 14]: 0 cm^3; Monitoring of tumour volume (in cm^3) D2 [8, 13]: 0.08 cm^3; Monitoring of tumour volume (in cm^3) D2 [8, 14]: 0.02 cm^3; Monitoring of tumour volume (in cm^3) D5 [8, 13]: 0.2 cm^3; Monitoring of tumour volume (in cm^3) D5 [8, 14]: 0.05 cm^3; Monitoring of tumour volume (in cm^3) D8 [8, 13]: 0.296 cm^3; Monitoring of tumour volume (in cm^3) D8 [8, 14]: 0.074 cm^3; Monitoring of tumour volume (in cm^3) D10 [8, 13]: 0.64 cm^3; Monitoring of tumour volume (in cm^3) D10 [8, 14]: 0.16 cm^3; Monitoring of tumour volume (in cm^3) D12 [8, 13]: 1.2 cm^3; Monitoring of tumour volume (in cm^3) D12 [8, 14]: 0.3 cm^3; Monitoring of tumour volume (in cm^3) D15 [8, 13]: 2.64 cm^3; Monitoring of tumour volume (in cm^3) D15 [8, 14]: 0.66 cm^3; Monitoring of tumour volume (in cm^3) D18 [8, 13]: 3.0 cm^3; Tumour volume on D18 (% relative to UAR) [8, 13]: −20%; Monitoring of tumour volume (in cm^3) D18 [8, 14]: 0.7 cm^3; Tumour volume on D18 (% relative to UAR) [8, 14]: −81%
